# Data published in paper PMC6694038, “Pharmacogenomic–pharmacokinetic study of selective estrogen-receptor modulators with intra-patient dose escalation in breast cancer” (Breast Cancer (Tokyo, Japan), 2019).
# What was measured:
# [1] = Plasma concentrations of TAM, TOR and their metabolites by LC–MS/MS (screening study)
# [2] = weighting of plasma concentration; cited from earlier work
# [3] = Hot flush grade (CTCAE v3.0) in the screening study; assay type: in vivo, breast cancer patients
# Source text: We obtained data on compliance and the grade of hot flush as defined by the Common Terminology Criteria for Adverse Events v3.0.
# [4] = patients on TAM 20 mg a day, N=182
# [5] = 14 patients of the dose-escalation study
Structure (SMILES),"Plasma concentration, max ([1]; patients on TOR 40 mg, N=61) [ng/mL]","Plasma concentration, mean ([1]; patients on TOR 40 mg, N=61) [ng/mL]","Plasma concentration, median ([1]; patients on TOR 40 mg, N=61) [ng/mL]","Plasma concentration, min ([1]; patients on TOR 40 mg, N=61) [ng/mL]","Plasma concentration, max ([1]; patients on TOR 120 mg, N=27) [ng/mL]","Plasma concentration, mean ([1]; patients on TOR 120 mg, N=27) [ng/mL]","Plasma concentration, median ([1]; patients on TOR 120 mg, N=27) [ng/mL]","Plasma concentration, min ([1]; patients on TOR 120 mg, N=27) [ng/mL]",In vitro activity factor in the total activity of TOR (TOR = 1.0) [2],"Plasma concentration, max [1, 4] [ng/mL]","Plasma concentration, mean [1, 4] [ng/mL]","Plasma concentration, median [1, 4] [ng/mL]","Plasma concentration, min [1, 4] [ng/mL]",In vitro activity factor in the total activity of TAM (TAM = 1.0) [2],further results
CNCCOc1ccc(/C(=C(/CCCl)c2ccccc2)c2ccccc2)cc1 [NDM-TOR],2820.0,1373.7,1350.0,601.0,5430.0,3594.4,3500.0,1380.0,0.764,–,–,–,–,–,–
CC/C(=C(\c1ccc(O)cc1)c1ccc(OCCN(C)C)cc1)c1ccccc1 [4OH-TAM],–,–,–,–,–,–,–,–,–,9.5,3.6,3.3,0.2,116,–
CNCCOc1ccc(/C(=C(/CCCl)c2ccccc2)c2ccc(O)cc2)cc1 [4OH-NDM-TOR],68.8,15.4,13.4,4.5,52.9,32.6,34.3,11.5,91.9,–,–,–,–,–,–
"CC/C(=C(\c1ccccc1)c1ccc(OCCN(C)C)cc1)c1ccccc1 [TAM, tamoxifen]",–,–,–,–,–,–,–,–,–,552.0,174.7,163.0,38.5,1.0,"Hot flush grade 0 on TAM 20 mg, % of patients [3, 5]: 57.1%; Hot flush grade 0 on TAM 20 mg, patients [3, 5]: 8; Hot flush grade 1 on TAM 20 mg, % of patients [3, 5]: 28.6%; Hot flush grade 1 on TAM 20 mg, patients [3, 5]: 4; Hot flush grade 2 on TAM 20 mg, % of patients [3, 5]: 14.3%; Hot flush grade 2 on TAM 20 mg, patients [3, 5]: 2; Hot flush grade 0, % of patients ([3]; TAM 20 mg, screening study): 56.8%; Hot flush grade 1, % of patients ([3]; TAM 20 mg, screening study): 31.4%; Hot flush grade 1, patients ([3]; TAM 20 mg, screening study): 58; Hot flush grade 2, % of patients ([3]; TAM 20 mg, screening study): 11.4%; Hot flush grade 2, patients ([3]; TAM 20 mg, screening study): 21; Hot flush grade 3, % of patients ([3]; TAM 20 mg, screening study): 0.5%; Hot flush grade 3, patients ([3]; TAM 20 mg, screening study): 1"
CC/C(=C(\c1ccccc1)c1ccc(OCCNC)cc1)c1ccccc1 [NDM-TAM],–,–,–,–,–,–,–,–,–,1090.0,283.2,271.0,59.2,0.655,–
CN(C)CCOc1ccc(/C(=C(/CCCl)c2ccccc2)c2ccc(O)cc2)cc1 [4OH-TOR],16.4,8.1,6.9,2.4,31.2,16.0,14.6,5.5,98.0,–,–,–,–,–,–
